Results reported in paper PMC12389355, “Physiologically Based Pharmacokinetic Modeling to Assess Perpetrator and Victim Cytochrome P450 2C Induction Risk” (Pharmaceutics, 2025).
pEC50: −log10 of the molar value.

Legend:
CYP2B6 [1] = assay: in vitro; conditions: human
CYP3A4 [2] = assay: CYP3A4 mRNA induction in human hepatocyte triculture (HTC) model
CYP2C9 [3] = assay: in vitro; conditions: human, probe diclofenac (4-hydroxy diclofenac formation)
CYP3A4 [4] = assay: CYP3A4 enzyme activity induction in HTC model (midazolam 1-hydroxylation)
CYP2C9 [5] = assay: CYP2C9 mRNA induction in HTC model
CYP2B6 [6] = assay: CYP2B6 mRNA induction in HTC model
CYP2C9 [7] = assay: in vitro; conditions: human
CYP2C19 [8] = assay: CYP2C19 enzyme activity induction in HTC model (omeprazole 5-hydroxylation)
CYP2C9 [9] = assay: CYP2C9 enzyme activity induction in HTC model (diclofenac 4-hydroxylation)
CYP2C19 [10] = assay: CYP2C19 mRNA induction in HTC model
CYP2C8 = CYP2C8 mRNA induction in HTC model
CYP3A4 [11] = assay: in vitro; conditions: human
Other CYPs = conditions: victim drug; ref [35],[36]; cited from earlier work
[12] = victim drug after administration with rifampicin; References of Table 4 ([27]-[43]), DIDB; cited from earlier work

O=C1Nc2ccc(Cl)cc2[C@@](C#CC2CC2)(C(F)(F)F)O1 [Efavirenz, efavirenz]
EC50 at 96 h (CYP2C9 [3]): 4290 nM
EC50 at 96 h (CYP2C9 [7]): 455 nM
pEC50 (CYP2C19 [8]; Donor 1): 6.02
pEC50 (CYP2C19 [8]; Donor 2): 6.53
pEC50 (CYP2C19 [8]; Donor 3): 5.61
pEC50 (CYP2C19 [10]; Donor 1): 5.08
pEC50 (CYP2C19 [10]; Donor 3): 5.54
pEC50 (CYP2C8; Donor 1): 5.35
pEC50 (CYP2C8; Donor 2): 5.71
pEC50 (CYP2C8; Donor 3): 5.53

CCCCNC(=O)NS(=O)(=O)c1ccc(C)cc1 [Tolbutamide, tolbutamide]
fm Other CYPs (Other CYPs): 0.15
% AUC Reduction (Clinically Observed) [12]: 63.5%
